Reference: US20120029187A1, “HALOALKYLSULFONANILIDE DERIVATIVE” (Nissan Chemical Industries, Ltd., priority 2009, published 2012)

What was measured:
Format in all cases: in vivo
[1] = system: Italian ryegrass; test: Test Example 3: herbicidal effects in soil treatment; details: dose 3.2 g/a
Summary of the method: (§1)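 Seeds were sown in sterilized diluvial soil and covered with about 1.5 cm of soil. Compounds, formulated as emulsifiable concentrates and diluted with water, were sprayed evenly over the soil surface at set doses in g/a. Herbicidal effect was scored on a rating scale three weeks later.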

[2] = system: common ragweed; test: as above; details: dose 3.2 g/a
Summary of the method: as §1

[3] = system: redroot pigweed; test: as above; details: dose 3.2 g/a
Summary of the method: as §1

[4] = system: barnyardgrass; test: as above; details: dose 3.2 g/a
Summary of the method: as §1

[5] = system: large crabgrass; test: as above; details: dose 3.2 g/a
Summary of the method: as §1

[6] = system: posumbu knotweed; test: as above; details: dose 3.2 g/a
Summary of the method: as §1

[7] = system: giant foxtail; test: as above; details: dose 3.2 g/a
Summary of the method: as §1

[8] = system: water foxtail; test: as above; details: dose 3.2 g/a
Summary of the method: as §1

[9] = system: common chickweed; test: as above; details: dose 3.2 g/a
Summary of the method: as §1

[10] = system: common lambsquater; test: as above; details: dose 3.2 g/a
Summary of the method: as §1

[11] = system: velvetleaf; test: as above; details: dose 3.2 g/a
Summary of the method: as §1

[12] = system: Italian ryegrass; test: Test Example 4: herbicidal effect in foliage treatment; details: three weeks after application
Summary of the method: (§2)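 Seeds sown in sterilized diluvial soil under ~1.5 cm soil cover and grown 14 days in a greenhouse at 25 to 30° C. Emulsifiable concentrates diluted with water were then sprayed uniformly on foliage at predetermined doses (g/a). Herbicidal effect was scored three weeks after application on a graded evaluation scale.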

[13] = system: common ragweed; test: as above; details: three weeks after application
Summary of the method: as §2

[14] = system: beadstraw; test: as above; details: dose 6.3 g/a, three weeks after application
Summary of the method: as §2

[15] = system: redroot pigweed; test: as above; details: three weeks after application
Summary of the method: as §2

[16] = system: barnyardgrass; test: as above; details: three weeks after application
Summary of the method: as §2

[17] = system: large crabgrass; test: as above; details: three weeks after application
Summary of the method: as §2

[18] = system: posumbu knotweed; test: as above; details: three weeks after application
Summary of the method: as §2

[19] = system: giant foxtail; test: as above; details: three weeks after application
Summary of the method: as §2

[20] = system: water foxtail; test: as above; details: three weeks after application
Summary of the method: as §2

[21] = system: common chickweed; test: as above; details: three weeks after application
Summary of the method: as §2

[22] = system: common lambsquater; test: as above; details: three weeks after application
Summary of the method: as §2

[23] = system: velvetleaf; test: as above; details: three weeks after application
Summary of the method: as §2

[24] = system: barnyardgrass; test: Test Example 1: herbicidal effects in preemergence treatment under submerged conditions; details: dose 2.52 g/a
Summary of the method: (§3)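 Flooded-paddy preemergence assay; EC diluted with water, surface-applied at weed seeding; doses g/a; rice transplanted at 2.5 leaves; 0–5 mortality score after 3 weeks.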

[25] = system: bulrush; test: as above; details: dose 2.52 g/a
Summary of the method: as §3

[26] = system: ducksalad; test: as above; details: dose 2.52 g/a
Summary of the method: as §3

[27] = system: barnyardgrass; test: Test Example 2: herbicidal effects during the vegetation period under submerged conditions; details: treatment during the vegetation period under submerged conditions; dose 2.52 g/a
Summary of the method: (§4)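 Barnyardgrass, bulrush and ducksalad were co-sown in alluvial soil flooded to 4 cm and grown in a greenhouse at 25 to 30° C. At the 1- or 2-leaf stage, water-diluted emulsifiable concentrates went onto the water surface at set doses (g/a). Herbicidal effect was scored three weeks later on a graded scale.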

[28] = system: bulrush; test: as above; details: treatment during the vegetation period under submerged conditions; dose 2.52 g/a
Summary of the method: as §4

[29] = system: ducksalad; test: as above; details: treatment during the vegetation period under submerged conditions; dose 2.52 g/a
Summary of the method: as §4

[30] = system: transplanted rice; test: Test Example 1: preemergence treatment under submerged conditions, effect on crop; details: dose 2.52 g/a
Summary of the method: as §3

## CCOC(=O)N(c1ccccc1CN1CC(C)OCC1=O)S(=O)(=O)C(F)(F)F (stereo not drawn) [Compound I-7]
[1]
  H: Italian ryegrass, herbicidal effect (evaluation scale 0-5): 5 (mortality of 90% or above (nearly complete death))
[2]
  J: common ragweed, herbicidal effect (evaluation scale 0-5): 5 (mortality of 90% or above (nearly complete death))
[3]
  K: redroot pigweed, herbicidal effect (evaluation scale 0-5): 5 (mortality of 90% or above (nearly complete death))
[4]
  A: barnyardgrass, herbicidal effect (evaluation scale 0-5): 5 (mortality of 90% or above (nearly complete death))
[5]
  D: large crabgrass, herbicidal effect (evaluation scale 0-5): 5 (mortality of 90% or above (nearly complete death))
[6]
  M: posumbu knotweed, herbicidal effect (evaluation scale 0-5): 5 (mortality of 90% or above (nearly complete death))
[7]
  E: giant foxtail, herbicidal effect (evaluation scale 0-5): 5 (mortality of 90% or above (nearly complete death))
[8]
  G: water foxtail, herbicidal effect (evaluation scale 0-5): 5 (mortality of 90% or above (nearly complete death))
[9]
  N: common chickweed, herbicidal effect (evaluation scale 0-5): 5 (mortality of 90% or above (nearly complete death))
[10]
  L: common lambsquater, herbicidal effect (evaluation scale 0-5): 5 (mortality of 90% or above (nearly complete death))
[11]
  I: velvetleaf, herbicidal effect (evaluation scale 0-5): 5 (mortality of 90% or above (nearly complete death))
[12]; dose 6.3 g/a
  H: Italian ryegrass, herbicidal effect: 5 (mortality of 90% or above (nearly complete death))
[13]; dose 6.3 g/a
  J: common ragweed, herbicidal effect: 4 (mortality of at least 70% and less than 90%)
[14]
  O: beadstraw, herbicidal effect: 5 (mortality of 90% or above (nearly complete death))
[15]; dose 6.3 g/a
  K: redroot pigweed, herbicidal effect: 1 (mortality of at least 5% and less than 20%)
[16]; dose 6.3 g/a
  A: barnyardgrass, herbicidal effect: 5 (mortality of 90% or above (nearly complete death))
[17]; dose 6.3 g/a
  D: large crabgrass, herbicidal effect: 5 (mortality of 90% or above (nearly complete death))
[18]; dose 6.3 g/a
  M: posumbu knotweed, herbicidal effect: 4 (mortality of at least 70% and less than 90%)
[19]; dose 6.3 g/a
  E: giant foxtail, herbicidal effect: 5 (mortality of 90% or above (nearly complete death))
[20]; dose 6.3 g/a
  G: water foxtail, herbicidal effect: 5 (mortality of 90% or above (nearly complete death))
[21]; dose 6.3 g/a
  N: common chickweed, herbicidal effect: 5 (mortality of 90% or above (nearly complete death))
[22]; dose 6.3 g/a
  L: common lambsquater, herbicidal effect: 4 (mortality of at least 70% and less than 90%)
[23]; dose 6.3 g/a
  I: velvetleaf, herbicidal effect: 5 (mortality of 90% or above (nearly complete death))
[24]
  A: barnyardgrass, herbicidal effect (evaluation scale 0-5): 5 (mortality of 90% or above (nearly complete death))
[25]
  B: bulrush, herbicidal effect (evaluation scale 0-5): 5 (mortality of 90% or above (nearly complete death))
[26]
  C: ducksalad, herbicidal effect (evaluation scale 0-5): 5 (mortality of 90% or above (nearly complete death))
[27]
  A: barnyardgrass, herbicidal effect (evaluation scale 0-5): 5 (mortality of 90% or above (nearly complete death))
[28]
  B: bulrush, herbicidal effect (evaluation scale 0-5): 5 (mortality of 90% or above (nearly complete death))
[29]
  C: ducksalad, herbicidal effect (evaluation scale 0-5): 5 (mortality of 90% or above (nearly complete death))

## CCOC(=O)N(c1ccccc1CN1COC(C)(C2CC2)CC1=O)S(=O)(=O)C(F)(F)F (stereo not drawn) [II-45]
[1]
  H: Italian ryegrass, herbicidal effect (evaluation scale 0-5): 4 (mortality of at least 70% and less than 90%)
[2]
  J: common ragweed, herbicidal effect (evaluation scale 0-5): 4 (mortality of at least 70% and less than 90%)
[3]
  K: redroot pigweed, herbicidal effect (evaluation scale 0-5): 0 (mortality of less than 5% (almost ineffective))
[4]
  A: barnyardgrass, herbicidal effect (evaluation scale 0-5): 5 (mortality of 90% or above (nearly complete death))
[5]
  D: large crabgrass, herbicidal effect (evaluation scale 0-5): 4 (mortality of at least 70% and less than 90%)
[6]
  M: posumbu knotweed, herbicidal effect (evaluation scale 0-5): 4 (mortality of at least 70% and less than 90%)
[7]
  E: giant foxtail, herbicidal effect (evaluation scale 0-5): 4 (mortality of at least 70% and less than 90%)
[8]
  G: water foxtail, herbicidal effect (evaluation scale 0-5): 5 (mortality of 90% or above (nearly complete death))
[9]
  N: common chickweed, herbicidal effect (evaluation scale 0-5): 3 (mortality of at least 40% and less than 70%)
[10]
  L: common lambsquater, herbicidal effect (evaluation scale 0-5): 0 (mortality of less than 5% (almost ineffective))
[11]
  I: velvetleaf, herbicidal effect (evaluation scale 0-5): 0 (mortality of less than 5% (almost ineffective))
[12]; dose 3.2 g/a
  H: Italian ryegrass, herbicidal effect: 4 (mortality of at least 70% and less than 90%)
[13]; dose 3.2 g/a
  J: common ragweed, herbicidal effect: 3 (mortality of at least 40% and less than 70%)
[15]; dose 3.2 g/a
  K: redroot pigweed, herbicidal effect: 0 (mortality of less than 5% (almost ineffective))
[16]; dose 3.2 g/a
  A: barnyardgrass, herbicidal effect: 4 (mortality of at least 70% and less than 90%)
[17]; dose 3.2 g/a
  D: large crabgrass, herbicidal effect: 3 (mortality of at least 40% and less than 70%)
[18]; dose 3.2 g/a
  M: posumbu knotweed, herbicidal effect: 3 (mortality of at least 40% and less than 70%)
[19]; dose 3.2 g/a
  E: giant foxtail, herbicidal effect: 2 (mortality of at least 20% and less than 40%)
[20]; dose 3.2 g/a
  G: water foxtail, herbicidal effect: 4 (mortality of at least 70% and less than 90%)
[21]; dose 3.2 g/a
  N: common chickweed, herbicidal effect: 3 (mortality of at least 40% and less than 70%)
[22]; dose 3.2 g/a
  L: common lambsquater, herbicidal effect: 3 (mortality of at least 40% and less than 70%)
[23]; dose 3.2 g/a
  I: velvetleaf, herbicidal effect: 2 (mortality of at least 20% and less than 40%)
[30]
  a: transplanted rice, effect on crop (evaluation scale 0-5): 0 (mortality of less than 5% (almost ineffective))
[24]
  A: barnyardgrass, herbicidal effect (evaluation scale 0-5): 5 (mortality of 90% or above (nearly complete death))
[25]
  B: bulrush, herbicidal effect (evaluation scale 0-5): 5 (mortality of 90% or above (nearly complete death))
[26]
  C: ducksalad, herbicidal effect (evaluation scale 0-5): 5 (mortality of 90% or above (nearly complete death))
[27]
  A: barnyardgrass, herbicidal effect (evaluation scale 0-5): 5 (mortality of 90% or above (nearly complete death))
[28]
  B: bulrush, herbicidal effect (evaluation scale 0-5): 5 (mortality of 90% or above (nearly complete death))
[29]
  C: ducksalad, herbicidal effect (evaluation scale 0-5): 5 (mortality of 90% or above (nearly complete death))

## CCOC(=O)N(c1ccccc1CN1COC(C)(c2ccccc2)CC1=O)S(=O)(=O)C(F)(F)F (stereo not drawn) [II-58]
[1]
  H: Italian ryegrass, herbicidal effect (evaluation scale 0-5): 4 (mortality of at least 70% and less than 90%)
[2]
  J: common ragweed, herbicidal effect (evaluation scale 0-5): 0 (mortality of less than 5% (almost ineffective))
[3]
  K: redroot pigweed, herbicidal effect (evaluation scale 0-5): 0 (mortality of less than 5% (almost ineffective))
[4]
  A: barnyardgrass, herbicidal effect (evaluation scale 0-5): 0 (mortality of less than 5% (almost ineffective))
[5]
  D: large crabgrass, herbicidal effect (evaluation scale 0-5): 0 (mortality of less than 5% (almost ineffective))
[6]
  M: posumbu knotweed, herbicidal effect (evaluation scale 0-5): 4 (mortality of at least 70% and less than 90%)
[7]
  E: giant foxtail, herbicidal effect (evaluation scale 0-5): 0 (mortality of less than 5% (almost ineffective))
[8]
  G: water foxtail, herbicidal effect (evaluation scale 0-5): 5 (mortality of 90% or above (nearly complete death))
[9]
  N: common chickweed, herbicidal effect (evaluation scale 0-5): 0 (mortality of less than 5% (almost ineffective))
[10]
  L: common lambsquater, herbicidal effect (evaluation scale 0-5): 0 (mortality of less than 5% (almost ineffective))
[11]
  I: velvetleaf, herbicidal effect (evaluation scale 0-5): 0 (mortality of less than 5% (almost ineffective))
[12]; dose 3.2 g/a
  H: Italian ryegrass, herbicidal effect: 4 (mortality of at least 70% and less than 90%)
[13]; dose 3.2 g/a
  J: common ragweed, herbicidal effect: 3 (mortality of at least 40% and less than 70%)
[15]; dose 3.2 g/a
  K: redroot pigweed, herbicidal effect: 0 (mortality of less than 5% (almost ineffective))
[16]; dose 3.2 g/a
  A: barnyardgrass, herbicidal effect: 3 (mortality of at least 40% and less than 70%)
[17]; dose 3.2 g/a
  D: large crabgrass, herbicidal effect: 0 (mortality of less than 5% (almost ineffective))
[18]; dose 3.2 g/a
  M: posumbu knotweed, herbicidal effect: 3 (mortality of at least 40% and less than 70%)
[19]; dose 3.2 g/a
  E: giant foxtail, herbicidal effect: 0 (mortality of less than 5% (almost ineffective))
[20]; dose 3.2 g/a
  G: water foxtail, herbicidal effect: 3 (mortality of at least 40% and less than 70%)
[21]; dose 3.2 g/a
  N: common chickweed, herbicidal effect: 4 (mortality of at least 70% and less than 90%)
[22]; dose 3.2 g/a
  L: common lambsquater, herbicidal effect: 1 (mortality of at least 5% and less than 20%)
[23]; dose 3.2 g/a
  I: velvetleaf, herbicidal effect: 0 (mortality of less than 5% (almost ineffective))
[30]
  a: transplanted rice, effect on crop (evaluation scale 0-5): 0 (mortality of less than 5% (almost ineffective))
[24]
  A: barnyardgrass, herbicidal effect (evaluation scale 0-5): 5 (mortality of 90% or above (nearly complete death))
[25]
  B: bulrush, herbicidal effect (evaluation scale 0-5): 5 (mortality of 90% or above (nearly complete death))
[26]
  C: ducksalad, herbicidal effect (evaluation scale 0-5): 5 (mortality of 90% or above (nearly complete death))
[27]
  A: barnyardgrass, herbicidal effect (evaluation scale 0-5): 4 (mortality of at least 70% and less than 90%)
[28]
  B: bulrush, herbicidal effect (evaluation scale 0-5): 5 (mortality of 90% or above (nearly complete death))
[29]
  C: ducksalad, herbicidal effect (evaluation scale 0-5): 5 (mortality of 90% or above (nearly complete death))
